Series [1] deals with T1, hSARM1 (Homo sapiens, UniProt Q6SZW1).
T1 sequence (Q6SZW1 28-724): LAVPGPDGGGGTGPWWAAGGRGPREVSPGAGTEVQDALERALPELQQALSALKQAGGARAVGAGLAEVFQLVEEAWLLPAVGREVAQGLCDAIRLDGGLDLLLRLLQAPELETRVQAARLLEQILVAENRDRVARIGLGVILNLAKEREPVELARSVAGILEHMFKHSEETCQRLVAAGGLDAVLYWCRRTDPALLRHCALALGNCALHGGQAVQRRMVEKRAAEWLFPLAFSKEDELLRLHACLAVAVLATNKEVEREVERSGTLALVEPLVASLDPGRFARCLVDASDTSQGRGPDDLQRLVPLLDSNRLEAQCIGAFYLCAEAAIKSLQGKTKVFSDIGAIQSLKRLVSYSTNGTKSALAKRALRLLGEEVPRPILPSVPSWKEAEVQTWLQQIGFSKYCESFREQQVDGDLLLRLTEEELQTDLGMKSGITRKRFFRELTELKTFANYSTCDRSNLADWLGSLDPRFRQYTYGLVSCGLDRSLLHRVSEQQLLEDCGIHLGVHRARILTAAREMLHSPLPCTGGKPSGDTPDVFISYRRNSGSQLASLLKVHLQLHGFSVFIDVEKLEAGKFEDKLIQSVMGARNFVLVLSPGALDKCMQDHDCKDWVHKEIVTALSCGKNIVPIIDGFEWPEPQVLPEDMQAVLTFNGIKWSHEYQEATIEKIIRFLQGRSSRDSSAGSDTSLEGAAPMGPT
The series can be described thus: SARM1 inhibitory activity using recombinant SARM1 (PC6 base exchange fluorescence). The series is classed as biochemical. Set-up: purchased BPS Bioscience. To be noted: recombinant human SARM1 2 ng/µL; NMN 10 µM; NAD 1 mM; PC6 50 µM; result in words. The protocol: The SARM1 inhibitory activity was evaluated by the following method using recombinant SARM1 from BPS Bioscience.
NMN, an endogenous activator for SARM1, was added at a final concentration of 10 µM to a reaction solution (composition: 40 mM HEPES-KOH (pH 7.4), 0.1% polyvinyl alcohol, and 110 mM potassium acetate) using a 96-well black plate. Subsequently, serial dilutions of the test compound and recombinant human SARM1 (final concentration: 2 ng/µL) were added thereto and preincubated at room temperature for 5 to 10 minutes. NAD and PC6 were added as substrates at final concentrations of 1 mM and 50 µM, respectively, to each well and incubated at room temperature for 1 hour, followed by fluorescent signal measurement using SpectraMax M2 (Molecular Devices) (excitation: 390 nm, fluorescence: 520 nm, fluorescence cutoff: 515 nm) (Li et al, eLife 2021 10: e67381). The fluorescent signal was normalized by using fluorescence intensity measured from a control group without addition of recombinant human SARM1 as a background whereas using fluorescence intensity measured from a control group supplemented with recombinant human SARM1 as the negative control, and plotted as the function of the test compound concentrations, and the compound was evaluated for its SARM1 inhibitory activity by calculating IC50.

The conditions of series [2]: mouse, in vivo.
Protocol: Compound 35 was intravenously (iv: 1 mg/5 ml/kg) administered at a single dose to C57BL/6J male mice (about 10 weeks old (non-fasted), n = 3), and blood was collected 5, 15, and 30 minutes, and 1, 2, 4, 8, and 24 hours later. Likewise, compound 35 was orally (po: 10 mg/10 ml/kg) administered at a single dose to C57BL/6J male mice (about 10 weeks old (non-fasted), n = 3), and blood was collected 15 and 30 minutes, and 1, 2, 4, 8, and 24 hours later. Urine was collected from each mouse up to 24 hours after administration (pooled urine).
Series [3] in a line: In vitro analysis of metabolite production with a UV (254 nm) chromatogram.

With `Nc1ncnc2c1ncn2[C@@H]1O[C@H](COP(=O)([O-])OP(=O)(O)OC[C@H]2O[C@@H]([n+]3cccc(C(=O)NCCCOCCOCCCNC(=O)c4cccnc4)c3)[C@H](O)[C@@H]2O)[C@@H](O)[C@H]1O` [compound 35-NAD-like metabolite], the SARM1 inhibitory activity result in series [1] was “stronger activity than that of compound 35”.
With `O=C(NCCCOCCOCCCNC(=O)c1ccc[n+]([C@@H]2O[C@H](COP(=O)([O-])O)[C@@H](O)[C@H]2O)c1)c1cccnc1` [compound 35-NMN-like metabolite], in series [1], the SARM1 inhibitory activity result was “stronger activity than that of compound 35”.
Regarding `CC(C)(C)C(=O)Nc1ccc(CNC(=O)c2ccc[n+]([C@@H]3O[C@H](COP(=O)(O)OP(=O)([O-])OC[C@H]4O[C@@H](n5cnc6c(N)ncnc65)[C@H](O)[C@@H]4O)[C@@H](O)[C@H]3O)c2)cn1` [compound 76-NAD-like metabolite], the SARM1 inhibitory activity result in series [1] was “stronger activity than that of compound 76”.
On to `CC(C)(C)C(=O)Nc1ccc(CNC(=O)c2ccc[n+]([C@@H]3O[C@H](COP(=O)([O-])O)[C@@H](O)[C@H]3O)c2)cn1` [compound 76-NMN-like metabolite], for which the “metabolites detected in the plasma” value in series [2] was “detected, albeit at a much lower concentration than that of compound 76”. Moreover, the SARM1 inhibitory activity entry in series [1] is “stronger activity than that of compound 76”.
Consider `Nc1ncnc2c1ncn2[C@@H]1O[C@H](COP(=O)([O-])OP(=O)(O)OC[C@H]2O[C@@H]([n+]3cccc(C(=O)NCc4ccc(NC(=O)c5ccccc5)nc4)c3)[C@H](O)[C@@H]2O)[C@@H](O)[C@H]1O` [compound 105-NAD-like metabolite], for which the SARM1 inhibitory activity result in series [1] is recorded as “exhibited stronger activity in this order”.
On the same count and under the same terms, the same measure for `O=C(NCc1ccc(NC(=O)c2ccccc2)nc1)c1ccc[n+]([C@@H]2O[C@H](COP(=O)([O-])O)[C@@H](O)[C@H]2O)c1` [compound 105-NMN-like metabolite]: “exhibited stronger activity in this order”.
Take `O=C(NCc1ccc(NC(=O)c2ccccc2)nc1)c1ccc[n+]([C@@H]2O[C@H](CO)[C@@H](O)[C@H]2O)c1` [compound 105-riboside form]: the production of metabolites entry in series [3] was “confirmed”. The SARM1 inhibitory activity entry in series [1] is “exhibited stronger activity in this order”.
